Tests used:
MDM and MDDC = test: Infectivity on MDM and MDDC (summary statements); type: cell-based, human; details: accessory protein provided in trans
MDM = type: cell-based, human
MDDC = type: cell-based, human
IFN-β mRNA = IFN-β mRNA induction in infected MDDC by qRT-PCR; type: cell-based, human; details: AZT 25 μM or Raltegravir 10 μM added prior to infection
resting CD4+ T cells = details: Siliciano et al. 2012; cited from earlier work

HIV-2rod Vpx: HIV-2 Vpx accessory protein from codon-optimized expression vector
Enhancement of MDM and MDDC infection (MDM and MDDC): only slightly enhanced MDM and MDDC infection
Effect of packaged accessory protein on infectivity of the p6 chimeric virus (MDM): enhanced the infectivity of the p6 chimeric virus on MDM
Activity relative to SIVmac239 Vpx (MDDC): about 8%
Effect of packaged accessory protein on infectivity of the p6 chimeric virus (MDDC): enhanced the infectivity of the p6 chimeric virus

Cc1nnc(C(=O)NC(C)(C)c2nc(C(=O)NCc3ccc(F)cc3)c(O)c(=O)n2C)o1 [Raltegravir]
Effect on IFN-β induction by Vpx-containing p6 chimeric virus (IFN-β mRNA): blocked

Cc1cn([C@H]2C[C@H](N=[N+]=[N-])[C@@H](CO)O2)c(=O)[nH]c1=O [AZT]
Effect on IFN-β induction by Vpx-containing p6 chimeric virus (IFN-β mRNA): blocked

O=C(CCCCCCC(=O)Nc1ccccc1)NO [SAHA, suberoylanilide hydroxamic acid]
Virus reactivation (resting CD4+ T cells): induced virus reactivation from resting CD4+ T cells

B1: SIVmac239 Vpx: lentiviral accessory protein, codon-optimized expression vector, SEQ ID NO: 85 (protein)
chain: MSDPRERIPPGNSGEETIGEAFEWLNRTVEEINREAVNHLPRELIFQVWQRSWEYWHDEQGMSPSYVKYRYLCLIQKALFMHCKKGCRCLGEGHGAGGWRPGPPPPPPPGLA
modifications: Simian immunodeficiency virus
Effect of packaged accessory protein on infectivity of the p6 chimeric virus (MDM): enhanced the infectivity of the p6 chimeric virus on MDM
Effect of packaged accessory protein on infectivity of the p6 chimeric virus (MDDC): enhanced the infectivity of the p6 chimeric virus

B2: SIVagm Vpr: SIVagm protein termed Vpr but more similar to Vpx (protein)
chain: MAEGRDSRERRPGWLEIWDLSREPWDEGLRDMVAELNQEAQRHFGRELLFQVWNFCQEEGERNGAPMIERAYRYYRLVQKALFVHFRCGCRRRTPFEPYEERRNGVGGGRDGREPPPGLA
modifications: Simian immunodeficiency virus
notes: SIVagm protein termed Vpr but more similar to Vpx
Enhancement of MDM and MDDC infection (MDM and MDDC): did not enhance the infection
Effect of packaged accessory protein on infectivity of the p6 chimeric virus (MDM): had no detectable effect
Effect of packaged accessory protein on infectivity of the p6 chimeric virus (MDDC): had no detectable effect

— patent US9149519B2, “Chimeric human immunodeficiency virus type 1 (HIV-1) with enhanced dendritic cell and macrophage tropism comprising the simian immunodeficiency virus (SIV) minimal Vpx packaging domain” (New York University, priority 2012, dated 2015)
